Results on four compounds are retold here after PMC8287923, “A small-molecule chemical interface for molecular programs” (Nucleic Acids Research, 2021).

The Kd is the equilibrium constant for the complex coming apart. Low values mean tighter binding, high ones weaker binding.

What all share (format): biochemical
Assay [1] has as its target TrpR (Escherichia coli, UniProt P0A881). Kind of assay: purified TrpR with operator DNA template (psTTrpR); PEN-DNA fluorescent switch dose response, Hill fit.
In assay [2] the target is T1, Tryptophan synthase subunit B (TrpB), EcB (Escherichia coli, UniProt P0A879, M149T/N171D).
T1 construct: purified standalone TrpB variant (EcB)
T1 sequence (P0A879 2-397 M149T/N171D): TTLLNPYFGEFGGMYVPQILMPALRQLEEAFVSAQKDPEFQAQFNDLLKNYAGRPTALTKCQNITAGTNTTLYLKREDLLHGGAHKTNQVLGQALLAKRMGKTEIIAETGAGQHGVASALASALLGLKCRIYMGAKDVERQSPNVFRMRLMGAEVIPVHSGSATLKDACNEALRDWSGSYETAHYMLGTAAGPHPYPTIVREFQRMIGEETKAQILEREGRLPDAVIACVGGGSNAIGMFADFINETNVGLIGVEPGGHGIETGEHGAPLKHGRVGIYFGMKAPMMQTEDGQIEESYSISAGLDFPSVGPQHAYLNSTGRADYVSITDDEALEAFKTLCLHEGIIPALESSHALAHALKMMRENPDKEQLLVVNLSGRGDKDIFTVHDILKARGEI
Kind of assay: HPLC of overnight enzymatic conversion of indole and L-serine to L-trp.

The target of assay [3] is T2, LacI (Escherichia coli, UniProt P03023).
T2 construct: purified LacI with C-terminal His-tag (dimer)
As to the kind of experiment: purified LacI with O1 operator DNA template (psTLacI); PEN-DNA fluorescent switch dose response ([…]).

`N[C@@H](Cc1c[nH]c2ccccc12)C(=O)O` [L-trp]: the affinity in assay [1], expressed as Kd, was 24 µM.

Regarding `N[C@@H](CO)C(=O)O` [L-serine], the “HPLC of overnight enzymatic conversion of indole and L-serine to L-trp” value in assay [2] was “Enzymatic activity of EcB L-trp synthesis was confirmed through HPLC evaluation”.

`CC(C)S[C@@H]1O[C@H](CO)[C@H](O)[C@H](O)[C@H]1O` [IPTG, isopropyl β-d-1-thiogalactopyranoside] registered a Kd in assay [3] of approximately 100 µM.

As to `c1ccc2[nH]ccc2c1` [indole], in assay [2], the “HPLC of overnight enzymatic conversion of indole and L-serine to L-trp” value is given as “Enzymatic activity of EcB L-trp synthesis was confirmed through HPLC evaluation”.
